The subject of one data set is EMT6 cells. Put plainly: In vivo efficacy, EMT6 syngeneic mouse model. The conditions noted are these: FIG. 12. Also noted: species or system BALB/c mice. How it is done:
Female BALB/c mice (KOTECH, South Korea) with 6 weeks of age, were used for all studies that were completed under the approval of the Legochembio Science's Institutional Animal Care and Use Committee (IACUC). CT26 or EMT6 cells (American Type Culture Collection (ATCC), #CRL-2638, #CRL-2755) were maintained in RPMI 1640 medium (Gibco, #22400097) supplemented with 10% heat-inactivated FBS and 1× Antibiotic-Antimycotic (Gibco, #15240062) at 37° C. with 5% CO2. The mycoplasma-negative cells were used for all experiments and mycoplasma test was done regularly using e-Myco™ VALiD Mycoplasma PCR Detection Kit (iNtRON biotechnology, #25239). CT26 cells (2×10^5 cells/mouse) or EMT6 cells (5×10^5 cells/mouse) in PBS were implanted subcutaneously into the shaved right flank. Tumor volumes and body weights were measured every 3 to 4 days, and the tomor volumes were calculated according to the formula 0.5×(length)×(width)^2.
Specifically, to determine in vivo efficacy of STING agonist compounds (Compound 214 and 221) in CT26 syngeneic mouse model, when tumor volume reached 70 mm^3, each compound was given at 1.5 mg/kg intravenously every 3 or 4 days (total three times). […] To determine in vivo efficacy of STING agonist compound (Compound 313) in EMT6 syngeneic mouse model, when tumor volume 100 mm^3, the compound was given at the indicated doses intravenously once weekly for 3 weeks except for the dose at 0.05 mg/kg twice a week.
A syngeneic system was used to assess the ability of the STING agonist compounds to induce immune responses and drive an anti-tumor immune response. In both CT26 and EMT6 syngeneic models, the STING agonist compounds remarkably controlled tumor growth at various doses (FIGS. 7 to 12).
Compound 313 also eliminated tumors in all groups (1 out of 5 for 0.05 mg/kg, 2 out of 5 for 0.1 mg/kg, 5 out of 5 for both 0.3 and 0.6 mg/kg) in EMT6 model (FIG. 12).

The subject of a further data set is Human THP-1 cells. Kind of data set: THP-1 activation, CD86 and HLA-DR by flow cytometry. The settings on record: THP-1, 5-fold serial dilution from 1 μM, 48 hours. Format: cell-based. How it is done:
To test the effect of STING agonist compounds described herein in the activation of innate and adaptive immune cells, flow cytometry (FACS) was performed. Human THP-1 cells (Korean Cell Line Bank, #40202) and PBMCs were seeded at 1.2×10^5 cells per well in a round-bottomed 96-well plate in RPMI 1640 medium (Gibco, #22400097) supplemented with 10% heat-inactivated FBS and 1× Antibiotic-Antimycotic (Gibco, #15240062) and rested for 24 hours at 37° C. The cells were stimulated with the STING agonist compounds as described; For THP-1 stimulation, the cells were treated with the STING agonist compound (Compound 313) in a 5-fold serial dilution from 1 μM for 48 hours. The induction of cell surface activation markers, CD86 (co-stimulatory molecule) and HLA-DR (MHC-class II), was measured by flow cytometry. […] For flow cytometry analysis, the stimulated cells were centrifuged at 300 g for 5 minutes at 4° C., and then resuspended in FACS buffer (2% FBS, 2 mM EDTA in PBS). […] Subsequently, the cells were stained with fluorescence-conjugated antibodies against CD8, CD3, CD56, and CD69 for CD8 T and NK cells activation and against CD86 and MHC-II for THP-1 naïve cells activation for 40 minutes at 4° C. After washing three times with FACS buffer, the cells were resuspended in FACS buffer and analyzed by FACSlyric (BD bioscience). The data were analyzed with Flowjo 9.0 software (BD bioscience).
(In general: Flow cytometry measures light scatter and fluorescence of single cells or particles in a stream.)

Data set [1] can be described thus: Normal cell cytotoxicity in PBMCs, CellTiter-Glo. Format: cell-based. The settings on record: human, read-out: In vitro cell cytotoxicity in PBMCs CC50. The essentials: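 PBMCs at 8.0×10^4 cells/well in RPMI 1640 with 10% FBS were rested 24 h at 37 °C. Cells were then exposed to the STING agonists for 72 h. Viability was read by CellTiter-Glo luminescence and expressed as percentage cell death.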
On the technique in general: In ATP-based viability assays light output follows the ATP content of the culture.

The target in another data set is T1, hSTING-WT (R232) (Homo sapiens, UniProt Q86WV6, H232R).
T1 construct: host or cells: THP1-Dual cells (human monocytes) with knocked-in hSTING R232
T1 sequence (Q86WV6 whole entry H232R): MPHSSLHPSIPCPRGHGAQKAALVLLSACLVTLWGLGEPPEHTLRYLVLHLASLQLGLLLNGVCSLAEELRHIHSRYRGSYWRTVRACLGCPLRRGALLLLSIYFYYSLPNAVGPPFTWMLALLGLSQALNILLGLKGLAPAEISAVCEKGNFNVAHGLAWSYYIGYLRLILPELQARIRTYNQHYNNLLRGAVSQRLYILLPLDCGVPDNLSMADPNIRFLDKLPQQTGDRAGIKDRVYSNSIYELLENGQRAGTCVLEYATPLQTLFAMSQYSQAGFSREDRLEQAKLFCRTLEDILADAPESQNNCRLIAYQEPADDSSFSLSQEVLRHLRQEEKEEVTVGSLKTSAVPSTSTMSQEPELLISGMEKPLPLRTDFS
Kind of data set: STING activation, THP1-Dual IRF3 reporter assay, hSTING-R232 cells. Format: cell-based. The settings on record: IRF3 luciferase reporter, 24 hours, read-out: STING activity using hSTING-R232 cells EC50. The essentials: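 THP1-Dual monocytes carrying knocked-in hSTING-WT (R232), H232 or HAQ variants were seeded at 9.0×10^4 cells per well and treated next day with serially diluted compounds for 24 h. Secreted IRF-Lucia luciferase in the supernatant was read by luminescence, and EC50 values were fitted with a 4-parameter model.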
Background: Reporter assays use an easily measured gene product as a stand-in for the process of interest.

In a further data set the target is T2, human STING (Homo sapiens, UniProt Q86WV6, H232R).
T2 construct: purchased Cisbio 64BDSTGPEG
T2 sequence (Q86WV6 whole entry H232R): as above
Kind of data set: Direct STING binding, HUMAN STING WT BINDING KIT (Cisbio). The conditions noted are these: direct binding to human STING WT protein in vitro; read-out: Binding potency EC50. The text has this:
Additionally, for analysis of direct binding potency of STING agonist compounds described herein to human STING, HUMAN STING WT BINDING KIT (Cisbio, #64BDSTGPEG) was used according to the manufacture's instruction.

The text below walks through data of patent US20260167659A1, “STING AGONISTS” (LIGACHEM BIOSCIENCES INC., priority 2022, published 2026).

pEC50: −log10 of the molar value.

Usually CC50 stands for the concentration that lowers cell viability or growth by half. By pEC50 is commonly meant the EC50 on a negative log10 scale, so that one unit is a factor of ten. Consider `CCn1nc(C)cc1C(=O)Nc1nc2cc(C(N)=O)cc(OC/C=C/Cn3cc(NC(=O)OCc4ccc(O[C@@H]5O[C@H](C(=O)O)[C@@H](O)[C@H](O)[C@H]5O)c(C(=O)NCCOCCOCCN(C)C)c4)cn3)c2n1C/C=C/Cn1c(NC(=O)c2cc(C)nn2CC)nc2cc(C(N)=O)cc(OCCCC(=O)O)c21` [Compound 313], for which the “mice with tumors eliminated” value with EMT6 cells (0.05 mg/kg intravenously twice a week) is listed as 1 out of 5; in the data set on EMT6 cells (0.1 mg/kg intravenously once weekly for 3 weeks) it was 2 out of 5; in the data set on EMT6 cells (0.3 mg/kg intravenously once weekly for 3 weeks), 5 out of 5; with EMT6 cells (0.6 mg/kg intravenously once weekly for 3 weeks), 5 out of 5. Also, the “co-stimulatory molecule CD86 on cell surface” value in the data set on Human THP-1 cells (FIG. 3A) is reported as “Up-regulation”. The “MHC class II molecule HLA-DR on cell surface” value with Human THP-1 cells (FIG. 3B) is “Up-regulation”. In addition, in data set [1], the CC50 at 72 h came to 98 nM. The pEC50 was 7.17 at hSTING-WT (R232) and 10.10 at human STING.
